“And” between values parts separate entries of the source, which are not always exact repeats. Equal entries are not always repeated.
Experiment: mn = molality of the nth substance listed, in mol/kg
Conditions: Liquid; for speed of sound: 100 kPa, Sing-around technique in a fixed-path interferometer; for mass density: 101 kPa, Vibrating tube method

O=P([O-])([O-])O.[K+].[K+] [dipotassium hydrogen phosphate] + O
Conditions	mass density, 288.15 K [kg/m3]	mass density, 293.15 K [kg/m3]	mass density, 298.15 K [kg/m3]	mass density, 303.15 K [kg/m3]	mass density, 308.15 K [kg/m3]	speed of sound, 288.15 K [m/s]	speed of sound, 293.15 K [m/s]	speed of sound, 298.15 K [m/s]	speed of sound, 303.15 K [m/s]	speed of sound, 308.15 K [m/s]
m1 = 0.01907	1001.68	1000.76	999.574	998.164	996.53	1466.9	1484.8	1499.7	1514.5	1522.3
m1 = 0.04894	1005.7	1004.75	1003.53	1002.09	1000.43	1471.1	1489	1503.9	1518.7	1526.5
m1 = 0.06838	1008.31	1007.35	1006.11	1004.65	1002.97	1473.8	1491.8	1506.6	1521.5	1529.3
m1 = 0.09992	1012.56	1011.57	1010.29	1008.79	1007.09	1478.3	1496.2	1511.1	1525.9	1533.7
m1 = 0.1992	1025.92	1024.84	1023.44	1021.85	1020.05	1492.2	1510.2	1525	1539.9	1547.7
m1 = 0.2993	1039.39	1038.23	1036.7	1035.01	1033.13	1506.3	1524.2	1539.1	1554	1561.8
m1 = 0.3965	1052.47	1051.22	1049.58	1047.79	1045.82	1520	1537.9	1552.8	1567.6	1575.4
m1 = 0.4942	1065.63	1064.29	1062.53	1060.65	1058.58	1533.8	1551.7	1566.5	1581.4	1589.2
m1 = 0.6	1079.87	1078.43	1076.55	1074.56	1072.4	1548.6	1566.6	1581.4	1596.3	1604.1
m1 = 0.6969	1092.92	1091.39	1089.39	1087.3	1085.06	1562.3	1580.2	1595.1	1609.9	1617.7
m1 = 0.7929	1105.83	1104.22	1102.11	1099.92	1097.59	1575.8	1593.7	1608.6	1623.4	1631.2
m1 = 0.8916	1119.12	1117.41	1115.18	1112.9	1110.48	1589.7	1607.6	1622.5	1637.3	1645.1
m1 = 0.9907	1132.46	1130.67	1128.32	1125.93	1123.43	1603.6	1621.5	1636.4	1651.2	1659

O=P([O-])([O-])O.[Na+].[Na+] [disodium hydrogen phosphate] + O
speed of sound [m/s], Frequency=3 MHz
Conditions	288.15 K	293.15 K	298.15 K	303.15 K	308.15 K
m1 = 0.02076	1467.8	1485.6	1500.3	1515	1522.8
m1 = 0.04991	1472.7	1490.4	1505	1519.3	1527.1
m1 = 0.07047	1476.2	1493.8	1508.3	1522.4	1530.2
m1 = 0.1014	1481.5	1498.9	1513.2	1527.1	1534.9
m1 = 0.1983	1497.9	1514.9	1528.8	1541.6	1549.4
m1 = 0.2992	1515.1	1531.5	1544.9	1556.8	1564.5
m1 = 0.394	1531.2	1547.2	1560.1	1571	1578.8
m1 = 0.4957	1548.5	1564	1576.4	1586.2	1594
m1 = 0.5971	1565.8	1580.7	1592.6	1601.5	1609.3
m1 = 0.6947	1582.4	1596.8	1608.2	1616.1	1623.9
m1 = 0.7942	1599.3	1613.3	1624.2	1631	1638.8
m1 = 0.876	1613.2	1626.8	1637.3	1643.3	1651.1
m1 = 0.976	1630.2	1643.3	1653.3	1658.3	1666.1

mass density [kg/m3]
Conditions	288.15 K	293.15 K	298.15 K	303.15 K	308.15 K
m1 = 0.02076	1001.71	1000.78	999.59	998.178	996.536
m1 = 0.04991	1005.35	1004.39	1003.16	1001.72	1000.04
m1 = 0.07047	1007.92	1006.93	1005.68	1004.22	1002.52
m1 = 0.1014	1011.78	1010.76	1009.47	1007.97	1006.24
m1 = 0.1983	1023.89	1022.75	1021.33	1019.74	1017.89
m1 = 0.2992	1036.51	1035.25	1033.7	1032.01	1030.03
m1 = 0.394	1048.36	1046.99	1045.31	1043.53	1041.44
m1 = 0.4957	1061.07	1059.58	1057.77	1055.88	1053.67
m1 = 0.5971	1073.75	1072.14	1070.2	1068.21	1065.88
m1 = 0.6947	1085.95	1084.21	1082.15	1080.06	1077.61
m1 = 0.7942	1098.39	1096.54	1094.34	1092.15	1089.58
m1 = 0.876	1108.62	1106.66	1104.36	1102.1	1099.43
m1 = 0.976	1121.11	1119.04	1116.61	1114.24	1111.45

CCCCCCn1cc[n+](C)c1.[Cl-] [1-hexyl-3-methylimidazolium chloride] + O
speed of sound, Frequency=3 MHz
Conditions	288.15 K	293.15 K	298.15 K	303.15 K	308.15 K
m1 = 0.01	1474.3 m/s and 1468.6 m/s	1484.6 m/s and 1490.1 m/s	1498.7 m/s and 1505 m/s	1511 m/s and 1517 m/s	1521.3 m/s and 1525.1 m/s
m1 = 0.03	1474.3 m/s	1490.1 m/s	1505 m/s	1517 m/s	1525.1 m/s

mass density [kg/m3]
Conditions	288.15 K	293.15 K	298.15 K	303.15 K	308.15 K
m1 = 0.01	999.911	999.007	997.841	996.436	994.818
m1 = 0.03	1000.17	999.246	998.052	996.623	995.004

From the NIST ThermoML archive (doi:10.1021/acs.jced.5b00326)
